In US4687778A, “Anti-amnestic agent” (Kabushiki Kaisha Yakult Honsha, priority 1984, dated 1987):
Residues, ends and D or L forms follow the SMILES beside them. *: point of attachment. Cbz = O=C(OCc1ccccc1)*; Boc = CC(C)(C)OC(=O)*; CH2Cl = ClC*

Experiments:
Toxicity test (LD50) = details: mouse, in vivo; ip, ICR male mice
Protocol: Using 4-weeks-old male ICR mice weighing 15-20 g, the value of LD50 was calculated by orally or intraperitoneally administering the prolinal derivatives to the mice and counting the deceased mice according to the conventional method.

[1] = test system: experimental amnestic rats; experiment: passive avoidance response of rats (scopolamine-induced amnesia), retention test; assay type: in vivo, male Wister SLC rat; details: scopolamine 3 mg/kg i.p.
Protocol: The method of assay of the anti-amnestic action was carried out according to the method reported by A. Kubota et al. in Int. […] A passive avoidance chamber used in this test was surrounded with inside-visible transparent plastic plates and included an electrifiable grid floor (30 cm in length and 30 cm in width) capable of being derivered with an electric current of 1.7 mA in strength for electric foot shock and a platform (15 cm in length, 15 cm in width and 4 cm in height) placed at the right back corner thereof. A male Wister SLC rat (weighing 100-150 g) was placed in the passive avoidance chamber and, when he stepped down on the floor, the electric current was sent to the grid continuously until he went up on the platform. Repeating this test with another rat, the rats stayed on the platform for more than 15 seconds were taken out of the chamber, being regarded to have learned the situation. This electric shock was normally 2 or 3 times. To avoid any difference in the rats, those required 10 seconds for the first step-down and those stepped down on the floor at least 5 times were excluded. Among the learned or trained rats, the first control group of them were intraperitoneally administered with 0.5% CMC solution and the other groups of them were intraperitoneally administered with scopolamine hydrobromide in a dose of 3 mg/Kg to prepare experimental amnestic rats. The prolinal derivatives of the general formula to be tested were in each case intraperitoneally or orally administered to the rats in an amount shown in Table 1 or 2 one after completion of the learning. In each case, the polinal derivatives are used as having been dissolved or suspended in a 0.5% CMC solution.

[2] = test system: proline-specific endopeptidase (post-proline cleaving enzyme); details: cited from earlier work

CC(=O)NCC(=O)N1CCC[C@H]1C=O [Acetyl-glycyl-prolinal, acetyl-glycyl-prolinal] (Ac-Gly-Pro-aldehyde)
LD50 (Toxicity test (LD50)): > 1000 mg/kg | Retention Test Latency, 24 hr ([1]; 1.3 mg/kg i.p. after training): 274.9 s | Retention Test Latency, 48 hr ([1]; 1.3 mg/kg i.p. after training): 198.6 s | Retention Test Latency, 24 hr ([1]; 1.3 mg/kg p.o. after training): 221.6 s | Retention Test Latency, 48 hr ([1]; 1.3 mg/kg p.o. after training): 143.2 s

CC(=O)N1CCC[C@H]1C(=O)N1CCC[C@H]1C=O [Acetyl-prolyl-prolinal, acetyl-prolyl-prolinal] (Ac-Pro-Pro-aldehyde)
LD50 (Toxicity test (LD50)): 767 mg/kg | Retention Test Latency, 24 hr ([1]; 2.3 mg/kg i.p. after training): > 300.0 s | Retention Test Latency, 48 hr ([1]; 2.3 mg/kg i.p. after training): > 300.0 s | Retention Test Latency, 24 hr ([1]; 2.3 mg/kg p.o. after training): 204.2 s | Retention Test Latency, 48 hr ([1]; 2.3 mg/kg p.o. after training): 177.4 s

C[C@H](NC(=O)OCc1ccccc1)C(=O)N1CCC[C@H]1C=O [N--Benzyloxycarbonyl-alanyl-prolinal, N-benzyloxycarbonyl-alanyl-prolinal] (Cbz-Ala-Pro-aldehyde)
LD50 (Toxicity test (LD50)): 954 mg/kg | Retention Test Latency, 24 hr ([1]; 2.0 mg/kg i.p. after training): 189.0 s | Retention Test Latency, 48 hr ([1]; 2.0 mg/kg i.p. after training): 203.4 s | Retention Test Latency, 24 hr ([1]; 2.0 mg/kg p.o. after training): 165.4 s | Retention Test Latency, 48 hr ([1]; 2.0 mg/kg p.o. after training): 155.2 s

O=C[C@@H]1CCCN1C(=O)CNC(=O)OCc1ccccc1 [N--Benzyloxycarbonyl-glycyl-prolinal, N-benzyloxycarbonyl-glycyl-prolinal] (Cbz-Gly-Pro-aldehyde)
LD50 (Toxicity test (LD50)): > 1000 mg/kg | Retention Test Latency, 24 hr ([1]; 1.9 mg/kg i.p. after training): > 300.0 s | Retention Test Latency, 48 hr ([1]; 1.9 mg/kg i.p. after training): > 300.0 s | Retention Test Latency, 24 hr ([1]; 1.9 mg/kg p.o. after training): 230.4 s | Retention Test Latency, 48 hr ([1]; 1.9 mg/kg p.o. after training): 175.5 s

CC(C)C[C@H](NC(=O)OCc1ccccc1)C(=O)N1CCC[C@H]1C=O [N--Benzyloxycarbonyl-leucyl-prolinal, N-benzyloxycarbonyl-leucyl-prolinal] (Cbz-Leu-Pro-aldehyde)
LD50 (Toxicity test (LD50)): > 1000 mg/kg | Retention Test Latency, 24 hr ([1]; 3.5 mg/kg i.p. after training): > 300.0 s | Retention Test Latency, 48 hr ([1]; 3.5 mg/kg i.p. after training): > 300.0 s | Retention Test Latency, 24 hr ([1]; 3.5 mg/kg p.o. after training): 281.6 s | Retention Test Latency, 48 hr ([1]; 3.5 mg/kg p.o. after training): 219.5 s

O=C[C@@H]1CCCN1C(=O)[C@@H]1CCCN1C(=O)OCc1ccccc1 [N--Benzyloxycarbonyl-prolyl-prolinal, N-benzyloxycarbonyl-prolyl-prolinal] (Cbz-Pro-Pro-aldehyde)
LD50 (Toxicity test (LD50)): > 1000 mg/kg

CC(C)[C@H](NC(=O)OCc1ccccc1)C(=O)N1CCC[C@H]1C=O [N--Benzyloxycarbonyl-valyl-prolinal, N-benzyloxycarbonyl-valyl-prolinal] (Cbz-Val-Pro-aldehyde)
LD50 (Toxicity test (LD50)): 825 mg/kg | Retention Test Latency, 24 hr ([1]; 2.2 mg/kg i.p. after training): > 300.0 s | Retention Test Latency, 48 hr ([1]; 2.2 mg/kg i.p. after training): > 300.0 s | Retention Test Latency, 24 hr ([1]; 2.2 mg/kg p.o. after training): 254.8 s | Retention Test Latency, 48 hr ([1]; 2.2 mg/kg p.o. after training): 210.5 s

O=C(NCC(=O)N1CCC[C@H]1C(=O)CCl)OCc1ccccc1 [N-benzyloxycarbonylglycyl-L-prolyl-chloromethane] (Cbz-Gly-Pro-CH2Cl)
inhibitory action to the endopeptidase [2]: strong inhibitory action

C[C@H](NC(=O)OC(C)(C)C)C(=O)N1CCC[C@H]1C=O [t-Butyloxycarbonyl-alanyl-prolinal, t-butyloxycarbonyl-alanyl-prolinal] (Boc-Ala-Pro-aldehyde)
LD50 (Toxicity test (LD50)): 796 mg/kg | Retention Test Latency, 24 hr ([1]; 1.8 mg/kg i.p. after training): 293.5 s | Retention Test Latency, 48 hr ([1]; 1.8 mg/kg i.p. after training): 250.4 s | Retention Test Latency, 24 hr ([1]; 1.8 mg/kg p.o. after training): 239.8 s | Retention Test Latency, 48 hr ([1]; 1.8 mg/kg p.o. after training): 226.7 s

CC(C)(C)OC(=O)N[C@@H](Cc1ccccc1)C(=O)N1CCC[C@H]1C=O [t-Butyloxycarbonyl-phenylalanyl-prolinal, t-butyloxycarbonyl-phenylalanyl-prolinal] (Boc-Phe-Pro-aldehyde)
LD50 (Toxicity test (LD50)): > 1000 mg/kg | Retention Test Latency, 24 hr ([1]; 3.0 mg/kg i.p. after training): > 300.0 s | Retention Test Latency, 48 hr ([1]; 3.0 mg/kg i.p. after training): 264.3 s | Retention Test Latency, 24 hr ([1]; 3.0 mg/kg p.o. after training): > 300.0 s | Retention Test Latency, 48 hr ([1]; 3.0 mg/kg p.o. after training): 250.2 s

CC(C)(C)OC(=O)N[C@@H](CO)C(=O)N1CCC[C@H]1C=O [t-Butyloxycarbonyl-seryl-prolinal, t-butyloxycarbonyl-seryl-prolinal] (Boc-Ser-Pro-aldehyde)
LD50 (Toxicity test (LD50)): > 1000 mg/kg | Retention Test Latency, 24 hr ([1]; 2.9 mg/kg i.p. after training): > 300.0 s | Retention Test Latency, 48 hr ([1]; 2.9 mg/kg i.p. after training): > 300.0 s | Retention Test Latency, 24 hr ([1]; 2.9 mg/kg p.o. after training): 262.9 s | Retention Test Latency, 48 hr ([1]; 2.9 mg/kg p.o. after training): 185.2 s

CC(C)(C)OC(=O)N[C@@H](Cc1ccc(O)cc1)C(=O)N1CCC[C@H]1C=O [t-Butyloxycarbonyl-tyrosyl-prolinal, t-butyloxycarbonyl-tyrosyl-prolinal] (Boc-Tyr-Pro-aldehyde)
LD50 (Toxicity test (LD50)): 933 mg/kg | Retention Test Latency, 24 hr ([1]; 3.6 mg/kg i.p. after training): 250.8 s | Retention Test Latency, 48 hr ([1]; 3.6 mg/kg i.p. after training): 206.9 s | Retention Test Latency, 24 hr ([1]; 3.6 mg/kg p.o. after training): 180.5 s | Retention Test Latency, 48 hr ([1]; 3.6 mg/kg p.o. after training): 192.1 s
